Assays:
[1] = Phenylacetaldehyde reductase activity assay; assay type: biochemical; conditions: NADPH as co-substrate
Method: FIG. 15 is a chromatogram showing the enzymatic reduction of phenylacetaldehyde to phenylethyl alcohol by Rr4HPAR1 and Rr4HPAR2. Chromatogram of positive ion mode metabolites between 50 and 300 m/z show the depletion of phenylacetaldehyde and production of phenylethyl alcohol when exposed to NADPH and Rr4HPAR1 or RrPAR2. Reactions were carried out in 200 μL 50 mM Tris, pH 8.0 in the presence of 2 mM phenylacetaldehyde, 5 mM NADPH and 50 μg of recombinant enzyme. The reactions were incubated at 30° C. for 25 minutes prior to quenching with 200 μL of 0.8 M formic acid, extracted with 100 μL of ethyl acetate and analyzed by gas chromatography-mass spectrometry. Phenylethyl alcohol was verified by comparison to an authentic standard.
The phenylacetaldehyde reductase activity assays using Rr4HPAR1 and RrPAR2 were carried out in 200 μL reaction buffer (50 mM Tris, pH 8.0) at the presence of 2 mM phenylacetaldehyde, 5 mM NADPH and 5 μg of recombinant enzyme. […] The organic phase was then analyzed by gas chromatography-mass spectrometry (GC-MS) using an 5% Phenyl Methyl Silox column (30 m×250 m×0.25 m, Agilent) with a temperature gradient as follows: 0-1 min 45° C., 4-13.33 min 45-185° C. […] The reaction mixture was then centrifuged and analyzed by LC-MS. […] Product formation was measured using select ion monitoring in positive mode for a centroid center mass of 121.065 with a scan width of 0.002. […]

[2] = 4-HPAA reductase activity assay; assay type: biochemical; conditions: 5 mM 4-HPAA, 10 mM NADPH, five-minute time point
Method: The phenylacetaldehyde reductase activity assays using Rr4HPAR1 and RrPAR2 were carried out in 200 μL reaction buffer (50 mM Tris, pH 8.0) at the presence of 2 mM phenylacetaldehyde, 5 mM NADPH and 5 μg of recombinant enzyme. The reactions were incubated at 30° C. for various time points, quenched with an equal volume of 0.8 M formic acid, and extracted by 100 μL of ethyl acetate. The organic phase was then analyzed by gas chromatography-mass spectrometry (GC-MS) using an 5% Phenyl Methyl Silox column (30 m×250 m×0.25 m, Agilent) with a temperature gradient as follows: 0-1 min 45° C., 4-13.33 min 45-185° C. The quadrupole MS was set to EI mode, electron energy at 70 eV, MS-source temperature at 230° C., MS-quad temperature at 150° C., scan mass range at 50-300 m/z and SIM for 120 m/z and 122 m/z. EI-MS spectra were compared against analytical standards. The 4-HPAA reductase activity assays were carried out in 100 μL of 50 mM Tris pH 8.0 with the addition of 5 mM 4-HPAA, 10 mM NADPH and 0.2 μg of Rr4HPAR1 or […] of Rr4HPAR2. […] The reaction mixture was then centrifuged and analyzed by LC-MS. […] Product formation was measured using select ion monitoring in positive mode for a centroid center mass of 121.065 with a scan width of 0.002. The specific activity was determined at a five-minute reaction time point, and quantified against a standard curve of tyrosol.

Rr4HPAR1: R. rosea 4-hydroxyphenylacetaldehyde reductase, reduces 4-HPAA to tyrosol
reduction of phenylacetaldehyde to phenylethanol [1]: higher activity
specific activity towards 4-HPAA [2]: 6.9 µmol/min/mg

Reference: patent US12385055B2, “Compositions and methods for production of salidroside, icariside D2, and precursors of salidroside and icariside D2” (Whitehead Institute for Biomedical Research, priority 2017, dated 2025)
